Experimental data published in publication PMC10525854 (Biomedicines, 2023).
In brackets after ≈: the same amount, converted by molar mass.

What was measured:
[1] = Solubility of ACF in different media; type: physicochemical; details: thermodynamic from solid
Procedure: The mixture was shaken using a vortex mixer (Heidolph Instrument, D-91126 Schwabach, type RZR 2021, Bavaria, Germany) for 15 min, followed by storage at room temperature. After 24 h, the resulting solution was subjected to centrifugation at 3000 rpm for 5 min to separate the clear supernatant. A suitable sample solution was collected and diluted with absolute methanol. The diluted sample was filtered using Whatman 102 filter paper and further diluted with absolute methanol for the determination of the drug concentration in the saturated solution. Analysis of the samples was performed using a UV spectrophotometer (DU 640; Beckman, CA, USA) at a wavelength of 276 nm, with methanol as the blank reference.

[2] = system: A375 human melanoma cell lines; assay: Cytotoxicity SRB assay; type: cell-based; details: A-375, 48 h of incubation (method says 72 h)
Procedure: Cell viability was assessed by SRB assay as reported [47]. […] Melanoma cells were mixed with TCA (10%) and maintained at 4 °C for 1 h, then washed with D.W. Sulforhodamine B (70 μL) (0.4% w/v) was added and kept for 10 min. Plates were washed by 1% acetic acid 3 times and left to dry overnight. TRIS (150 μL) was added to dissolve the protein-bound SRB stain. Lastly, absorbance was determined by a star Omega microplate reader (BMGLABTECH®-FLUO, Ortenberg, Germany) at 540 nm [48, 49]. Cytotoxicity was expressed as (IC50), which was determined by plotting %viability against the concentration of the drug (five concentrations were used). IC50 values were calculated from the dose–response curve by the PRISM program.

- solubility at 24 h ([1]; oil or lipid, citronellol oil, room temperature): 5.26 mg/mL (≈ 14.9 mM)
- solubility at 24 h ([1]; organic solvent or mixture, Transcutol HP, room temperature): 300 mg/mL (≈ 848 mM)
- solubility at 24 h ([1]; Tween 80, room temperature): 62.6 mg/mL (≈ 177 mM)
- solubility at 24 h ([1]; water, room temperature): 0.071 mg/mL (≈ 0.2 mM)
Structure (SMILES): O=C(O)COC(=O)Cc1ccccc1Nc1c(Cl)cccc1Cl [ACF, Aceclofenac]
- IC50 [2]: 69.3 µg/mL (≈ 0.196 mM)
